The source of these data is the kinase profiling compilation of Christmann-Franck et al. (2016).

Broadly, the residual activity is the signal under treatment as a percentage of the control signal.

Chain of DDR2 (human) (Q16832 whole entry, looked up): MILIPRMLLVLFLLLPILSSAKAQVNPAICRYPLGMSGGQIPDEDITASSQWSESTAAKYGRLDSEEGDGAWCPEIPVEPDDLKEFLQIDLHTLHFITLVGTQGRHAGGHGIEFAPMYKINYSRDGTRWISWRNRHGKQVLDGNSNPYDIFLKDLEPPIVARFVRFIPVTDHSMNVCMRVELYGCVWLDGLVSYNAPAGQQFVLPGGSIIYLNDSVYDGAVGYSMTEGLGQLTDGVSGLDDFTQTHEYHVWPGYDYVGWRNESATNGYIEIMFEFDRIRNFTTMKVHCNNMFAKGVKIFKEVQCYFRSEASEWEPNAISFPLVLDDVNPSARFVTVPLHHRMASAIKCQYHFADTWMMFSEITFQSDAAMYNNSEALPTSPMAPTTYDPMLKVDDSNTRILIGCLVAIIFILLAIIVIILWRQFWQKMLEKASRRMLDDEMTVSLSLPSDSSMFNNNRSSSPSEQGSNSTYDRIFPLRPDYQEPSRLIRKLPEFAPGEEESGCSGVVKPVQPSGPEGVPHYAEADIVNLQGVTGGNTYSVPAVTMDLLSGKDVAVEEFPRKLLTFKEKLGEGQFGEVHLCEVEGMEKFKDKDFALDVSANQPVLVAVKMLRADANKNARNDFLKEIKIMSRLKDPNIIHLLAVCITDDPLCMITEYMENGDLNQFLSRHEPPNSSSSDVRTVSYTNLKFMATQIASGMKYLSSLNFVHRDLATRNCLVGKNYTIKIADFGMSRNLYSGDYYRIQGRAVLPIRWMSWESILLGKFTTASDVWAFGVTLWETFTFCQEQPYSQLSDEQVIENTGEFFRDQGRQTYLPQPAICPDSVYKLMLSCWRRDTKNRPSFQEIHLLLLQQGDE

The target in one assay is IGF1R (human) (UniProt P08069). Nature of the assay: radiometric filter-binding kinase assay, Kinase HotSpot. As to conditions: compound 0.5 µM; ATP 10 µM.
`CCN(CC)CCCCN1c2ccccc2Oc2ccc(Cl)cc21`: the residual activity stood at 89.4%.
In the case of `CC(=O)O/N=C1\C(=C2\C(=O)Nc3cc(Br)ccc32)Nc2ccccc21`, the residual activity came to 106%.
Still for that read-out and setting: then `O=C(O)/C=C/c1cc(Br)c(Br)c(Br)c1Br`, with 96%.

Another assay has as its target WNK3 (human) (UniProt Q9BYP7). The assay is described as above. As to conditions: compound 0.5 µM; ATP 10 µM.
In the case of `CCN(CC)CCCCN1c2ccccc2Oc2ccc(Cl)cc21`, the residual activity was 108%.
Consider `CC(=O)O/N=C1\C(=C2\C(=O)Nc3cc(Br)ccc32)Nc2ccccc21`, for which the residual activity was determined as 93%.
Turning to `O=C(O)/C=C/c1cc(Br)c(Br)c(Br)c1Br`, the residual activity is 89.8%.

For a further assay, the target named is CDK1 CCNB1 (human) (UniProt P06493+P14635). The description is as above. As to conditions: compound 0.5 µM; ATP 10 µM.
For the compound `CCN(CC)CCCCN1c2ccccc2Oc2ccc(Cl)cc21`, the residual activity worked out at 96.8%.
Same read-out and setting: as for `CC(=O)O/N=C1\C(=C2\C(=O)Nc3cc(Br)ccc32)Nc2ccccc21`, the figure is 79.3%; as for `O=C(O)/C=C/c1cc(Br)c(Br)c(Br)c1Br`, 62.7%.

Another assay has as its target RPS6KA6 KD1 KD2 (human) (UniProt Q9UK32). Described as above. As to conditions: compound 0.5 µM; ATP 10 µM.
For the compound `CCN(CC)CCCCN1c2ccccc2Oc2ccc(Cl)cc21`, the residual activity turned out to be 109%.
Turning to `CC(=O)O/N=C1\C(=C2\C(=O)Nc3cc(Br)ccc32)Nc2ccccc21`, the residual activity is 70%.
The same measure, in the same setting: then `O=C(O)/C=C/c1cc(Br)c(Br)c(Br)c1Br`, with 86.9%.

The target of another assay is EPHA4 (human) (UniProt P54764). Described as above. As to conditions: compound 0.5 µM; ATP 10 µM.
Regarding `CCN(CC)CCCCN1c2ccccc2Oc2ccc(Cl)cc21`, the residual activity came to 91.9%.
For `CC(=O)O/N=C1\C(=C2\C(=O)Nc3cc(Br)ccc32)Nc2ccccc21`, the residual activity turned out to be 87.6%.
Regarding `O=C(O)/C=C/c1cc(Br)c(Br)c(Br)c1Br`, the residual activity was 88.8%.

For a further assay, the target named is FGR (human) (UniProt P09769). Described as above. As to conditions: compound 0.5 µM; ATP 10 µM.
Chain of FGR (human) (P09769 whole entry, looked up): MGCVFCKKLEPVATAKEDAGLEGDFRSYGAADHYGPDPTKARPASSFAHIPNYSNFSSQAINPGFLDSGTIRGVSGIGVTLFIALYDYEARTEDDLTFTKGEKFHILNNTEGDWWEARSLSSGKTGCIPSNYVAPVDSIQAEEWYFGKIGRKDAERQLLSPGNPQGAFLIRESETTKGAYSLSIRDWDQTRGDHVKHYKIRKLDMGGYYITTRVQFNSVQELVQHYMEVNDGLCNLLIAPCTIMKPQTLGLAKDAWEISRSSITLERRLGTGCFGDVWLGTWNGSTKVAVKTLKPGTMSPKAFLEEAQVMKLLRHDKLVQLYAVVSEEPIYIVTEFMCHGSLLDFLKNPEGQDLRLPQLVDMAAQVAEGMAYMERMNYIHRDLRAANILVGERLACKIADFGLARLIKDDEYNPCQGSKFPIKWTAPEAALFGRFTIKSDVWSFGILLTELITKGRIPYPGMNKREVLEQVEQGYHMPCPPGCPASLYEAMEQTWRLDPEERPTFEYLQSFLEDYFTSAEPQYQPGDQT
On to `CCN(CC)CCCCN1c2ccccc2Oc2ccc(Cl)cc21`, for which the residual activity is 101%.
For the compound `CC(=O)O/N=C1\C(=C2\C(=O)Nc3cc(Br)ccc32)Nc2ccccc21`, the residual activity is 14.8%.
On the same count and under the same terms, then `O=C(O)/C=C/c1cc(Br)c(Br)c(Br)c1Br`, with 98.4%.

The target of a further assay is PAK4 (human) (UniProt O96013). The description is as above. As to conditions: compound 0.5 µM; ATP 10 µM.
Take `CCN(CC)CCCCN1c2ccccc2Oc2ccc(Cl)cc21`: the residual activity turned out to be 104%.
Still for that read-out and setting: then `CC(=O)O/N=C1\C(=C2\C(=O)Nc3cc(Br)ccc32)Nc2ccccc21`, with 92.7%; and `O=C(O)/C=C/c1cc(Br)c(Br)c(Br)c1Br`, with 104%.

In the next assay the target is DYRK3 (human) (UniProt O43781). Described as above. As to conditions: compound 0.5 µM; ATP 10 µM.
On to `CCN(CC)CCCCN1c2ccccc2Oc2ccc(Cl)cc21`, for which the residual activity is 99%.
Same read-out and setting: as for `CC(=O)O/N=C1\C(=C2\C(=O)Nc3cc(Br)ccc32)Nc2ccccc21`, the figure is 91.3%.
On the same count and under the same terms, as for `O=C(O)/C=C/c1cc(Br)c(Br)c(Br)c1Br`, the figure is 100%.

A further assay deals with MAP3K9 (human) (UniProt P80192). The assay is described as above. As to conditions: compound 0.5 µM; ATP 10 µM.
Chain of MAP3K9 (human) (P80192 whole entry, looked up): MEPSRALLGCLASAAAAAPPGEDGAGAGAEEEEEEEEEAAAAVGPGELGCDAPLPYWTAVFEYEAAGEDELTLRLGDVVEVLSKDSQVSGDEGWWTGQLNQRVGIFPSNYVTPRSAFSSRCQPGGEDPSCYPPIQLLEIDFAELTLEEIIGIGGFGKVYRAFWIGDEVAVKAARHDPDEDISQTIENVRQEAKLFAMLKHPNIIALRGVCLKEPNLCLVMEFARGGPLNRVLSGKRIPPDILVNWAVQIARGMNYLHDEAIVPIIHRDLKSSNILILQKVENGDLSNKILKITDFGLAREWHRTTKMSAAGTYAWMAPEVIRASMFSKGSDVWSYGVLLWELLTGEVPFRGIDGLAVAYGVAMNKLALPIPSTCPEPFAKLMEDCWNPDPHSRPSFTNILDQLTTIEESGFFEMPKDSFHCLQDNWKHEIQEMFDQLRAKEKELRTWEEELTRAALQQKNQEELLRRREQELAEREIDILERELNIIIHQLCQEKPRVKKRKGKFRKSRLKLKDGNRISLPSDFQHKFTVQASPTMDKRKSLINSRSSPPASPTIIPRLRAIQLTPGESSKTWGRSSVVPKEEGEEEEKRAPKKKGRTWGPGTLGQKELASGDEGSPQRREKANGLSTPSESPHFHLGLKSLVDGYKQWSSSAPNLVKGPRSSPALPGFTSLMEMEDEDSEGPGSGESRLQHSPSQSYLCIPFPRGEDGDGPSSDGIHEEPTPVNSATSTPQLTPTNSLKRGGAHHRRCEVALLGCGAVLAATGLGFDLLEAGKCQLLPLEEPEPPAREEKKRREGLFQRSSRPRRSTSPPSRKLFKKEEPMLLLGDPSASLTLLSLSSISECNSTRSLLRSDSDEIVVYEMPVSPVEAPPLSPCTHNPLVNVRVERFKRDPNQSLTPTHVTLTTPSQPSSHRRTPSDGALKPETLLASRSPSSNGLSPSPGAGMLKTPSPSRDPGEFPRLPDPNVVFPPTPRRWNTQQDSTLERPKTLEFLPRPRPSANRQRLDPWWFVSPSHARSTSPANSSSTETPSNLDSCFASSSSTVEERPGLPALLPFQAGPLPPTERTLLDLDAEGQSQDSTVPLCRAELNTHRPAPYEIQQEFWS
With `CCN(CC)CCCCN1c2ccccc2Oc2ccc(Cl)cc21`, the residual activity worked out at 95.7%.
As for `CC(=O)O/N=C1\C(=C2\C(=O)Nc3cc(Br)ccc32)Nc2ccccc21`, the residual activity is 51.5%.
With `O=C(O)/C=C/c1cc(Br)c(Br)c(Br)c1Br`, the residual activity worked out at 101%.

A further assay concerns the target CAMK1 (human) (UniProt Q14012). The assay is described as above. As to conditions: compound 0.5 µM; ATP 10 µM.
For `CCN(CC)CCCCN1c2ccccc2Oc2ccc(Cl)cc21`, the residual activity was 101%.
As to `CC(=O)O/N=C1\C(=C2\C(=O)Nc3cc(Br)ccc32)Nc2ccccc21`, the residual activity came to 102%.
Same read-out and setting: then `O=C(O)/C=C/c1cc(Br)c(Br)c(Br)c1Br`, with 105%.

A further assay addresses DDR2 (human) (UniProt Q16832). The assay is described as above. As to conditions: compound 0.5 µM; ATP 10 µM.
Consider `CCN(CC)CCCCN1c2ccccc2Oc2ccc(Cl)cc21`, for which the residual activity came out at 99.4%.
On the same count and under the same terms, then `CC(=O)O/N=C1\C(=C2\C(=O)Nc3cc(Br)ccc32)Nc2ccccc21`, with 89.8%.
Still for that read-out and setting: as for `O=C(O)/C=C/c1cc(Br)c(Br)c(Br)c1Br`, the figure is 94.3%.

In a further assay the target is ACVRL1 (human) (UniProt P37023). Described as above. As to conditions: compound 0.5 µM; ATP 10 µM.
In the case of `CCN(CC)CCCCN1c2ccccc2Oc2ccc(Cl)cc21`, the residual activity stood at 102%.
On the same count and under the same terms, as for `CC(=O)O/N=C1\C(=C2\C(=O)Nc3cc(Br)ccc32)Nc2ccccc21`, the figure is 107%; as for `O=C(O)/C=C/c1cc(Br)c(Br)c(Br)c1Br`, 103%.

For another assay, the target named is MAPK13 (human) (UniProt O15264). The description is as above. As to conditions: compound 0.5 µM; ATP 10 µM.
Chain of MAPK13 (human) (O15264 whole entry, looked up): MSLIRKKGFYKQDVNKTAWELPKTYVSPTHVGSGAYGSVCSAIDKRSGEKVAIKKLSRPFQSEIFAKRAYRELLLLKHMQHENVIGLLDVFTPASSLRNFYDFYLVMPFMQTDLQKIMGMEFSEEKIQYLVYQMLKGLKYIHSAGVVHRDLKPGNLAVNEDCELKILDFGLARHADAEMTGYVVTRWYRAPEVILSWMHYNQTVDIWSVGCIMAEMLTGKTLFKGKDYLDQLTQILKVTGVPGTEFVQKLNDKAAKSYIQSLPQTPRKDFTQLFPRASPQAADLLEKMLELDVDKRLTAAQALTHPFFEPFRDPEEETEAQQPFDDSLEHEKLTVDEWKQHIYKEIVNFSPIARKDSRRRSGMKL
For `CCN(CC)CCCCN1c2ccccc2Oc2ccc(Cl)cc21`, the residual activity amounted to 94.3%.
As for `CC(=O)O/N=C1\C(=C2\C(=O)Nc3cc(Br)ccc32)Nc2ccccc21`, the residual activity is 91.5%.
Consider `O=C(O)/C=C/c1cc(Br)c(Br)c(Br)c1Br`, for which the residual activity is 98.5%.

The target in the next assay is NTRK2 (human) (UniProt Q16620). The description is as above. As to conditions: compound 0.5 µM; ATP 10 µM.
Chain of NTRK2 (human) (Q16620 whole entry, looked up): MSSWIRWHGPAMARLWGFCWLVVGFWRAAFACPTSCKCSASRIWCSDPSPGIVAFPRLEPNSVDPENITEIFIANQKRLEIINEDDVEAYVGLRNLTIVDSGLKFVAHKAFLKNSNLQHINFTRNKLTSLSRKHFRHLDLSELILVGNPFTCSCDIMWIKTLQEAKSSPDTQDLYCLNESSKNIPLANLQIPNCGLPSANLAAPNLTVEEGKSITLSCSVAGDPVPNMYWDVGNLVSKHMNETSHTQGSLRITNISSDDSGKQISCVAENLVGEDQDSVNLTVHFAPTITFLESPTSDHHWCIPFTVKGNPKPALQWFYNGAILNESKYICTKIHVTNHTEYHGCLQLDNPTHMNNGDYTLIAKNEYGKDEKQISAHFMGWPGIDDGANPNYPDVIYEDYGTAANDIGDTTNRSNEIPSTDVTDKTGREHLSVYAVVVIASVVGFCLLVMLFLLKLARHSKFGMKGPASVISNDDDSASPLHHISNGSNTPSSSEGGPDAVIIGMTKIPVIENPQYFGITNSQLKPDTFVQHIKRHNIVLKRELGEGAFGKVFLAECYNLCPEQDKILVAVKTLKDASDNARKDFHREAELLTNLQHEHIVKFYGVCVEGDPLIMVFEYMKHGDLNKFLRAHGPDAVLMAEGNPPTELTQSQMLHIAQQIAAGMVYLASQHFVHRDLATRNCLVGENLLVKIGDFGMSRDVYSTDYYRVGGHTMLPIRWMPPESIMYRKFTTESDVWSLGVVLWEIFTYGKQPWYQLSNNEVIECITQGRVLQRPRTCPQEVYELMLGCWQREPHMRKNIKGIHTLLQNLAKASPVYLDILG
Take `CCN(CC)CCCCN1c2ccccc2Oc2ccc(Cl)cc21`: the residual activity amounted to 102%.
The same measure, in the same setting: then `CC(=O)O/N=C1\C(=C2\C(=O)Nc3cc(Br)ccc32)Nc2ccccc21`, with 38.4%.
On to `O=C(O)/C=C/c1cc(Br)c(Br)c(Br)c1Br`, for which the residual activity was 98.2%.

The target of a further assay is MAP3K3 (human) (UniProt Q99759). The assay is described as above. As to conditions: compound 0.5 µM; ATP 10 µM.
As to `CCN(CC)CCCCN1c2ccccc2Oc2ccc(Cl)cc21`, the residual activity is 103%.
Still for that read-out and setting: as for `CC(=O)O/N=C1\C(=C2\C(=O)Nc3cc(Br)ccc32)Nc2ccccc21`, the figure is 97.4%; as for `O=C(O)/C=C/c1cc(Br)c(Br)c(Br)c1Br`, 105%.

The next assay deals with CSNK1G3 (human) (UniProt Q9Y6M4). Described as above. As to conditions: compound 0.5 µM; ATP 10 µM.
With `CCN(CC)CCCCN1c2ccccc2Oc2ccc(Cl)cc21`, the residual activity turned out to be 78.3%.
Same read-out and setting: then `CC(=O)O/N=C1\C(=C2\C(=O)Nc3cc(Br)ccc32)Nc2ccccc21`, with 101%.
Still for that read-out and setting: then `O=C(O)/C=C/c1cc(Br)c(Br)c(Br)c1Br`, with 92.1%.

For another assay, the target named is EPHA7 (human) (UniProt Q15375). Described as above. As to conditions: compound 0.5 µM; ATP 10 µM.
As to `CCN(CC)CCCCN1c2ccccc2Oc2ccc(Cl)cc21`, the residual activity was determined as 102%.
For the compound `CC(=O)O/N=C1\C(=C2\C(=O)Nc3cc(Br)ccc32)Nc2ccccc21`, the residual activity was determined as 97.9%.
Turning to `O=C(O)/C=C/c1cc(Br)c(Br)c(Br)c1Br`, the residual activity stood at 94.1%.

Another assay deals with JAK2 JH1 JH2 (human) (UniProt O60674). The assay is described as above. As to conditions: compound 0.5 µM; ATP 10 µM.
Chain of JAK2 JH1 JH2 (human) (O60674 whole entry, looked up): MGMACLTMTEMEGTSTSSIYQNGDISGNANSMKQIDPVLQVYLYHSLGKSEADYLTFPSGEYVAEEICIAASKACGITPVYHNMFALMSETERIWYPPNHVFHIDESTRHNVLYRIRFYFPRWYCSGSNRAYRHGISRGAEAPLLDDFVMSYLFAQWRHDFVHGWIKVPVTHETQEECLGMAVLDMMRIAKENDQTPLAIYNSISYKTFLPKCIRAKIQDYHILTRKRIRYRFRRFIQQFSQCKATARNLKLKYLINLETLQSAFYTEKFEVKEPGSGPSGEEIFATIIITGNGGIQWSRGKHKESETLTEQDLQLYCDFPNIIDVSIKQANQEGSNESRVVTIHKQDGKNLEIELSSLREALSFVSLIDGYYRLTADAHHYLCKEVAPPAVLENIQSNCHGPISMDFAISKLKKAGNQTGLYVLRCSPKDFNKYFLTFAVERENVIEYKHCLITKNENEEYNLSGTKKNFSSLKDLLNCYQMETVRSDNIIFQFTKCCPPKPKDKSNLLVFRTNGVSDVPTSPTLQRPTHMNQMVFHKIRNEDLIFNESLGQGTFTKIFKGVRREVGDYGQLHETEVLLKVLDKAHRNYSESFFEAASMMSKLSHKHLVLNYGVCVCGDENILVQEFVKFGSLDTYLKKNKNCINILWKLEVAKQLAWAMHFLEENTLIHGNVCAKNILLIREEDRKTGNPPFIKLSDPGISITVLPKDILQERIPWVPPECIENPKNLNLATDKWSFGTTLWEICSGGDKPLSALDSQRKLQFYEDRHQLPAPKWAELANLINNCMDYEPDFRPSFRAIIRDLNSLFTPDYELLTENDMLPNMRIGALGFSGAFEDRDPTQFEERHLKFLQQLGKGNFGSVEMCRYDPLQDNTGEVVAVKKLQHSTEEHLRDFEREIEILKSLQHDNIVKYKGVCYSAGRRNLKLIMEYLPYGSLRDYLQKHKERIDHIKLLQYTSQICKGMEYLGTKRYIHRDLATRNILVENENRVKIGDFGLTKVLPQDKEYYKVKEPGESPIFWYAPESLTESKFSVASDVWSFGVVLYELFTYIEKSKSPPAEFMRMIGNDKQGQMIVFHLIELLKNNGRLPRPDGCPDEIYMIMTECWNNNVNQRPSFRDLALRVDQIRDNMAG
Take `CCN(CC)CCCCN1c2ccccc2Oc2ccc(Cl)cc21`: the residual activity amounted to 104%.
Same read-out and setting: as for `CC(=O)O/N=C1\C(=C2\C(=O)Nc3cc(Br)ccc32)Nc2ccccc21`, the figure is 105%; as for `O=C(O)/C=C/c1cc(Br)c(Br)c(Br)c1Br`, 101%.

For another assay, the target named is PIM3 (human) (UniProt Q86V86). Described as above. As to conditions: compound 0.5 µM; ATP 10 µM.
Turning to `CCN(CC)CCCCN1c2ccccc2Oc2ccc(Cl)cc21`, the residual activity amounted to 37.8%.
`CC(=O)O/N=C1\C(=C2\C(=O)Nc3cc(Br)ccc32)Nc2ccccc21`: the residual activity is 54.2%.
Same read-out and setting: then `O=C(O)/C=C/c1cc(Br)c(Br)c(Br)c1Br`, with 17.7%.

The target of the next assay is PRKCG (human) (UniProt P05129). The description is as above. As to conditions: compound 0.5 µM; ATP 10 µM.
Regarding `CCN(CC)CCCCN1c2ccccc2Oc2ccc(Cl)cc21`, the residual activity is 91.1%.
The same measure, in the same setting: then `CC(=O)O/N=C1\C(=C2\C(=O)Nc3cc(Br)ccc32)Nc2ccccc21`, with 103%.
For the compound `O=C(O)/C=C/c1cc(Br)c(Br)c(Br)c1Br`, the residual activity came to 89.4%.

The next assay addresses PIM2 (human) (UniProt Q9P1W9). The assay is described as above. As to conditions: compound 0.5 µM; ATP 10 µM.
On to `CCN(CC)CCCCN1c2ccccc2Oc2ccc(Cl)cc21`, for which the residual activity was found to be 109%.
